Read-outs that look alike come from different tables or passages of the source.
Assays:
[1] = system: primary human total T-cells; assay: Primary human total T-cell activation: IL-2 secretion, Biological Example 9; format: cell-based; settings: 48 hours, fold change over baseline; for fold induction at 1 µM: inhibitor 1 μM
[2] = target: Cbl-b (Homo sapiens (Human), UniProt Q13191); assay: Cbl-b displacement assay (Cbl-b inhibition assay), Biological Example 12; format: binding; settings: 0.125 nM Cbl-b final concentration (Low); Table 12-1; read-out: Cbl-b IC50 (Low)
Method in brief: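 Biotinylated Avitag-Cbl-b (residues 36-427) at 0.5 nM ("High") or 0.125 nM ("Low") final was preincubated 1 h at room temperature with compound (1% DMSO) in 20 mM HEPES pH 7.5, 150 mM NaCl, 0.01% Triton X-100, 0.01% BSA, 0.5 mM TCEP. Then 150 nM BODIPY FL inhibitor probe (~EC40) plus 2 nM streptavidin-terbium, 1 h; TR-FRET 520/620 read, IC50 derived.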

Sequence of Cbl-b (Q13191 36-427): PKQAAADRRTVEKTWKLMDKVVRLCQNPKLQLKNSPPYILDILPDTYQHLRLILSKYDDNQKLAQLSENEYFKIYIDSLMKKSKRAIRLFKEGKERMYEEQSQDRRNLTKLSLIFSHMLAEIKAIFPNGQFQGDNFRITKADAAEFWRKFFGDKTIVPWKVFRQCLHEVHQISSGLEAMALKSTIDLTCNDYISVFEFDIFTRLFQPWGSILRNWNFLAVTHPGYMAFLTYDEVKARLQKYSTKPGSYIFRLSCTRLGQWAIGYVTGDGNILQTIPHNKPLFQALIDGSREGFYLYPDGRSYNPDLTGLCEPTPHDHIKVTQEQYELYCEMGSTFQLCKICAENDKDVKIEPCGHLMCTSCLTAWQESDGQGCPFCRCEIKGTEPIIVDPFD

`C[C@@H]1CN(Cc2cc3c(c(C(F)(F)F)c2)CN(c2cccc(C4(Cc5nncn5C)COC4)c2)C3=O)CCC1(F)F` [Compound 8, (R)-6-((4,4-difluoro-3-methylpiperidin-1-yl)methyl)-2-(3-(3-((4-methyl-4H-1,2,4-triazol-3-yl)methyl)oxetan-3-yl)phenyl)-4-(trifluoromethyl)isoindolin-1-one] gave a fold induction at 0.3 µM ([1]; anti-CD3/anti-CD28 co-stimulation, inhibitor 0.3 μM, Table 9-1) greater than 15, a fold induction at 1 µM ([1]; anti-CD3/anti-CD28 co-stimulation, Table 9-1, read-out: IL-2 secretion CD3/CD28 1 μM) greater than 15 and a fold induction at 1 µM ([1]; anti-CD3 alone, Table 9-1, read-out: IL-2 secretion CD3 1 μM) greater than 0.66. For the same compound, the fold induction at 3 µM ([1]; anti-CD3 alone, inhibitor 3 μM, Table 9-1) was greater than 0.66 and the IC50 [2] was less than 1 nM.
